Source: patent US10344019B2 (priority 2010, dated 2019)
pEC50: −log10 of the molar value. Read-outs that look alike come from different tables or passages of the source.

What was measured:
Assay in all cases: microbe, parasite or virus in culture
Format in all cases: cell-based
[1] = test system: HCV 1a RLuc cells (dicistronic genotype 1a H77 replicon, RLuc reporter); conditions: Hepatitis C virus, read-out: 1a
Procedure, shortened: (§1)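 Renilla luciferase HCV replicon cells: dicistronic 1b Con1, 1a H77 or 2a JFH-1 replicons, or a JFH-1 chimera carrying J6 NS5A (M31 present). Compound in DMSO serial dilutions, 72 h incubation, then lysis and luciferase read. EC50 by non-linear regression.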

[2] = test system: HCV 1b RLuc cells (dicistronic genotype 1b Con1 replicon, RLuc reporter); conditions: Hepatitis C virus, read-out: 1b (nM)
Procedure, shortened: as §1

[3] = test system: HCV 2a JFH-1 Rluc cells (dicistronic genotype 2a JFH-1 replicon, RLuc reporter); conditions: Hepatitis C virus, genotype 2a JFH-1 replicon, read-out: 2a JFH
Procedure, shortened: as §1

[4] = test system: HCV 3a RLuc cells (NS5A chimeric genotype 1b Con1 replicon with consensus genotype 3a NS5A gene); conditions: Hepatitis C virus
Procedure, shortened: (§2)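 Replicon cells stably carrying the listed RLuc-encoding dicistronic replicons were seeded and treated with DMSO serial dilutions of compound (10 mM stocks) diluted into culture medium. After 72 h, cells were lysed and Renilla luciferase activity measured. EC50 was derived by non-linear regression.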

[5] = test system: HCV 4a Rluc cells (NS5A chimeric genotype 1b Con1 replicon with genotype 4a NS5A gene); conditions: Hepatitis C virus, read-out: 4a
Procedure, shortened: as §2

[6] = 72 h, Table 2, genotype 1a H77 replicon, 72 hours
[7] = read-out: 3a, Table 2, genotype 3a NS5A chimeric replicon
[8] = genotype 1a H77 replicon, RLuc reporter
[9] = read-out: 3a, genotype 3a NS5A chimeric 1b Con1 replicon

Row | Compound | pEC50 [1, 6] | EC50 ([2]; 72 h) [nM] | pEC50 ([3]; 72 h, Table 2, 72 hours) | pEC50 [4, 7] | pEC50 [5] | pEC50 [1, 8] | EC50 [2] [nM] | pEC50 ([3]; RLuc reporter) | pEC50 [4, 9] | further results
1 | COC(=O)N[C@H](C(=O)N1CCC[C@H]1c1ncc(-c2ccc3c(c2)C(F)(F)c2cc(-c4ccc5nc([C@@H]6[C@H]7CC[C@H](C7)N6C(=O)[C@H](NC(=O)OC)c6ccccc6)[nH]c5c4)ccc2-3)[nH]1)C(C)C [Example 40] | 9.00 to 12.00 | 0.005 | 9.00 to 12.00 | 8.30 to 9.00 | 9.00 to 12.00 | – | – | – | – | –
2 | COC(=O)N[C@H](C(=O)N1CCC[C@H]1c1ncc(-c2ccc3c(c2)sc2cc(-c4cnc([C@@H]5CCCN5C(=O)[C@H](NC(=O)OC)c5ccccc5)[nH]4)ccc23)[nH]1)C(C)C [Example 250] | – | – | – | – | 9.00 to 12.00 | 9.00 to 12.00 | 0.004 | 9.00 to 12.00 | 9.00 to 12.00 | –
3 | COC(=O)N[C@H](C(=O)N1[C@@H]2CC[C@@H](C2)[C@H]1c1nc2c([nH]1)-c1ccc(-c3ccc4c(ccc5nc([C@@H]6CCCN6C(=O)[C@@H](NC(=O)OC)C6CCOCC6)[nH]c54)c3)cc1CC2)C(C)C [Example 291] | – | – | – | – | 9.00 to 12.00 | – | 0.103 | – | – | pEC50 ([1]; genotype 1a replicon): 9.00 to 12.00; pEC50 [3]: 9.00 to 12.00; pEC50 ([4]; read-out: 3a, genotype 3a replicon): 9.00 to 12.00
4 | COC(=O)N[C@H](C(=O)N1[C@@H]2CC[C@@H](C2)[C@H]1c1ncc(-c2ccc(-c3ccc4cc(-c5cnc([C@@H]6CCCN6C(=O)[C@H](NC(=O)OC)c6ccccc6)[nH]5)ccc4c3)cc2)[nH]1)C1CCOCC1 [Example 71] | 9.00 to 12.00 | 0.013 | 9.00 to 12.00 | 9.00 to 12.00 | 9.00 to 12.00 | – | – | – | – | –
5 | COC(=O)N[C@H](C(=O)N1CCC[C@H]1c1ncc(-c2ccc3cc(-c4ccc(-c5cnc([C@@H]6[C@@H]7CC[C@@H](C7)N6C(=O)[C@H](NC(=O)OC)c6ccccc6)[nH]5)cc4)ccc3c2)[nH]1)C(C)C [Example 51] | 7.36 to 9.00 | 0.012 | 7.36 to 9.00 | 8.30 to 9.00 | 9.00 to 12.00 | – | – | – | – | –
6 | COC(=O)N[C@H](C(=O)N1CCC[C@H]1c1ncc(-c2ccc3cc(-c4ccc(-c5cnc([C@@H]6CC7(CN6C(=O)[C@H](NC(=O)OC)c6ccccc6)OCCO7)[nH]5)cc4)ccc3c2)[nH]1)C1CCOCC1 [Example 47] | 9.00 to 12.00 | 0.037 | 9.00 to 12.00 | 8.30 to 9.00 | 9.00 to 12.00 | – | – | – | – | –
7 | COC(=O)NC(C(=O)N1CCC[C@H]1C1=NC(c2ccc3cc(-c4ccc5c(ccc6nc([C@@H]7CCCN7C(=O)[C@@H](NC(=O)OC)C7CCOCC7)[nH]c65)c4)ccc3c2)=CC1)c1cccnc1 (stereo partly drawn) [Example 239] | – | – | – | – | 9.00 to 12.00 | 9.00 to 12.00 | 0.078 | 9.00 to 12.00 | 9.00 to 12.00 | –
8 | COC(=O)N[C@H](C(=O)N1CCC[C@H]1c1ncc(-c2ccc3cc(-c4ccc(-c5cnc([C@@H]6CC7(CC7)CN6C(=O)[C@H](NC(=O)OC)c6ccccc6)[nH]5)cc4)ccc3c2)[nH]1)C(C)C [Example 235] | – | – | – | – | 9.00 to 12.00 | 9.00 to 12.00 | 0.004 | 9.00 to 12.00 | 8.30 to 9.00 | –
9 | COC(=O)N[C@H](C(=O)N1CCC[C@H]1c1ncc(-c2ccc3c(c2)COc2c-3ccc3cc(-c4cnc([C@@H]5CCCN5C(=O)[C@H](NC(=O)OC)c5ccccc5)[nH]4)ccc23)[nH]1)C1CCOCC1 [Example 4] | – | 0.11 | – | – | 9.00 to 12.00 | – | – | – | – | pEC50 ([1]; 72 h, Table 1, genotype 1a H77 replicon, 72 hours): 9.00 to 12.00; pEC50 ([3]; 72 h, Table 1, 72 hours): 9.00 to 12.00; pEC50 ([4]; read-out: 3a, Table 1, genotype 3a NS5A chimeric replicon): 9.00 to 12.00
10 | COC(=O)N[C@H](C(=O)N1CCC[C@H]1c1nc2c([nH]1)-c1ccc(-c3ccc4cc(-c5cnc([C@@H]6CCCN6C(=O)[C@H](NC(=O)OC(C)(C)C)c6ccccc6)[nH]5)ccc4c3)cc1CC2)C(C)C [Example 242] | – | – | – | – | 9.00 to 12.00 | 9.00 to 12.00 | 0.008 | 9.00 to 12.00 | 9.00 to 12.00 | –
11 | COC(=O)NC(C(=O)N1CC2(CC2)C[C@H]1c1ncc(-c2ccc(-c3ccc4cc(-c5cnc([C@@H]6CCCN6C(=O)[C@H](NC(=O)OC)c6ccccc6)[nH]5)ccc4c3)cc2)[nH]1)[C@@H](C)OC (stereo partly drawn) [Example 262] | – | – | – | – | 9.00 to 12.00 | 9.00 to 12.00 | 0.008 | 9.00 to 12.00 | 9.00 to 12.00 | –
12 | COC(=O)N[C@H](C(=O)N1CCC[C@H]1c1ncc(-c2ccc3cc(-c4ccc(-c5cnc([C@@H]6[C@H]7CC[C@H](C7)N6C(=O)[C@H](NC(=O)OC)c6ccccc6)[nH]5)cc4)ccc3c2)[nH]1)C1CCOCC1 [Example 49] | 9.00 to 12.00 | 0.014 | 9.00 to 12.00 | 9.00 to 12.00 | 9.00 to 12.00 | – | – | – | – | –
